The assay has as its target Mycobacterium thermoresistible (Mtr) LpqY (Mycolicibacterium thermoresistibile, UniProt G7CES0). Format: binding. To be noted: single dose MST screen against LpqY.
Mycobacterium thermoresistible (Mtr) LpqY, sequence (G7CES0 29-471): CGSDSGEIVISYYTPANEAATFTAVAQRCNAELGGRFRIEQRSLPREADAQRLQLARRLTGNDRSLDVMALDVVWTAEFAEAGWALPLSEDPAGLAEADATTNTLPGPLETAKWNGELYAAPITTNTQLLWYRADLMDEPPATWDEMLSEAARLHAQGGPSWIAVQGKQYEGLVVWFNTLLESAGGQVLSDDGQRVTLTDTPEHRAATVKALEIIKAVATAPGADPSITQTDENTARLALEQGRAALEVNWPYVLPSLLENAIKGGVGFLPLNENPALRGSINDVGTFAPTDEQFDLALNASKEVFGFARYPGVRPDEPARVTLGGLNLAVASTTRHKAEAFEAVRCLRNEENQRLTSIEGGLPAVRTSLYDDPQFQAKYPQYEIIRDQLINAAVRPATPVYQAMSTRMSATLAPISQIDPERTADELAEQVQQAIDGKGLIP
As to `CCc1nc2ccccc2n1CC(O)COc1cc(C)ccc1Cl` (stereo not drawn) [MMV676449], the “Pathogen Box screen signal/noise ratio” value came out at 1.2.

For the compound `COc1ccc(OC)c(NCc2ccc3nc(N)nc(N)c3c2Cl)c1` [MMV675968], the “Pathogen Box screen signal/noise ratio” value is listed as 5.0.

In the case of `COc1cccc(-n2nnnc2S(=O)(=O)Cc2ccccc2)c1` [MMV676388], the “Pathogen Box screen signal/noise ratio” value is reported as 0.952.

For `O=C(NCCN1CCCC1)c1cc(NCCN2CCOCC2)nc2ccc(Cl)cc12` [MMV634140], the “Pathogen Box screen signal/noise ratio” value was found to be 0.9.

Consider `c1csc(-c2cnc3sc(NCC4CCOCC4)nn23)c1` [MMV010764], for which the “Pathogen Box screen signal/noise ratio” value came to 0.667.

As to `CCC(Sc1nc2ccccc2o1)C(=O)Nc1nnc(C)s1` (stereo not drawn) [MMV611037], the “Pathogen Box screen signal/noise ratio” value turned out to be 0.9.

In the case of `O=C(Nc1ccc(F)c(-c2nc3cc(-c4ccccc4)cnc3[nH]2)c1)N1CCCC1` [MMV688372], the “Pathogen Box screen signal/noise ratio” value amounted to 0.9.

Regarding `CN(C)c1cc(NC(=O)Nc2ccccc2)c2ccccc2n1` [MMV006901], the “Pathogen Box screen signal/noise ratio” value worked out at 1.2.

As to `CC(C)(C)n1nc(-c2ccccc2)c2c(N)ncnc21` [MMV688548], the “Pathogen Box screen signal/noise ratio” value is given as 1.0.

For `COC(=O)c1c(NC(=O)c2c(F)c(F)c(F)c(F)c2F)sc2c1CCCCC2` [MMV461553], the “Pathogen Box screen signal/noise ratio” value turned out to be 2.6.

For `NC(=O)c1cc(-c2ccsc2)ccc1OCCOc1ccccc1` [MMV687138], the “Pathogen Box screen signal/noise ratio” value is 1.8.

Take `CNc1snc(C)c1C(=O)NCCOc1ccc(OC)cc1` [MMV688554]: the “Pathogen Box screen signal/noise ratio” value is on record as 0.8.

Consider `OCc1ccc(-c2cncc(Nc3cccc(Cl)c3)c2)cc1` [MMV026468], for which the “Pathogen Box screen signal/noise ratio” value is on record as 0.563.

Take `CCOC(=O)c1c(NC(=O)c2c(F)c(F)c(F)c(F)c2F)sc(C(N)=O)c1C` [MMV153413]: the “Pathogen Box screen signal/noise ratio” value stood at 1.3.

In the case of `OC[C@H]1O[C@@H](n2c3ccc(Cl)cc3c3c(-c4cc5ccccc5o4)ncnc32)C(O)[C@H]1O` (stereo partly drawn) [MMV688921], the “Pathogen Box screen signal/noise ratio” value came out at 1.1.

Consider `COc1ccc(Cl)cc1NC(=O)CN(C)C(=O)c1cnn(-c2ccccc2)n1` [MMV020710], for which the “Pathogen Box screen signal/noise ratio” value turned out to be 1.8.

In the case of `CC(C)(C)n1nc(Cc2ccc(F)c(Cl)c2)c2c(N)ncnc21` [MMV688852], the “Pathogen Box screen signal/noise ratio” value is given as 0.7.

Regarding `CN1CCCN(C(c2ccccc2)c2ccc(Cl)cc2)CC1` (stereo not drawn) [MMV004168], the “Pathogen Box screen signal/noise ratio” value was determined as 0.9.

As to `Cc1[nH]c2cc(F)cc(F)c2c(=O)c1-c1ccc(Oc2ccc(OC(F)(F)F)cc2)cc1` [MMV671636], the “Pathogen Box screen signal/noise ratio” value is recorded as 0.545.

In the case of `CCOc1ccccc1NC(C)C(=O)Nc1cc(C(F)(F)F)ccc1N1CCOCC1` (stereo not drawn) [MMV407834], the “Pathogen Box screen signal/noise ratio” value was 2.3.

Regarding `CCc1ccccc1-n1c(C)cn2c3c(=O)n(C(C(=O)OC)C(C)C)c(=O)n(C)c3nc12` (stereo not drawn) [MMV688550], the “Pathogen Box screen signal/noise ratio” value was determined as 0.222.

For `N#Cc1nc(-c2ccccc2)oc1S(=O)(=O)c1ccc(Cl)cc1` [MMV676412], the “Pathogen Box screen signal/noise ratio” value is on record as 0.6.

Turning to `CNCCC(Oc1ccc(C(F)(F)F)cc1)c1ccccc1` (stereo not drawn) [MMV001561], the “Pathogen Box screen signal/noise ratio” value is listed as 0.9.

As to `c1ccc(-c2cc(N3CCCCC3)c3ccccc3n2)nc1` [MMV560185], the “Pathogen Box screen signal/noise ratio” value turned out to be 0.7.

Regarding `Cn1c(=O)c2c(S(C)(=O)=O)snc2n(C)c1=O` [MMV687251], the “Pathogen Box screen signal/noise ratio” value amounted to 0.0729.

In the case of `Cc1ccc2nc(C)c(-c3ccn(Cc4ccccc4)n3)n2c1` [MMV688939], the “Pathogen Box screen signal/noise ratio” value was -0.2.

In the case of `FC(F)(F)c1cc(NCCc2ccccc2)nc(-c2ccccn2)n1` [MMV659010], the “Pathogen Box screen signal/noise ratio” value is 1.0.

Consider `CC(C)NCC(=O)Nc1cccc(C(=O)Nc2cccc(C(F)(F)F)c2)c1` [MMV020165], for which the “Pathogen Box screen signal/noise ratio” value is recorded as 4.3.

Consider `NCC(c1cccs1)S(=O)(=O)c1ccccc1` (stereo not drawn) [MMV688557], for which the “Pathogen Box screen signal/noise ratio” value was found to be 0.569.

For `c1ccc(Oc2ccc(-c3cc(C4CCOCC4)[nH]n3)cc2)cc1` [MMV687762], the “Pathogen Box screen signal/noise ratio” value was 0.6.

Consider `O=C(C1CCN(c2cc(-n3cccc3)ncn2)CC1)N1CCc2ccccc2C1` [MMV687172], for which the “Pathogen Box screen signal/noise ratio” value came to 0.431.

As for `FC(F)(F)c1nnc2ccc(Cl)nn12` [MMV069458], the “Pathogen Box screen signal/noise ratio” value is given as 2.4.

`C[C@@H]1[C@H](O)[C@@H](C)/C=C/C=C/C=C/C=C/C=C/C=C/C=C/[C@H](O[C@@H]2O[C@H](C)[C@@H](O)[C@H](N)[C@@H]2O)C[C@@H]2O[C@](O)(C[C@@H](O)C[C@@H](O)[C@H](O)CC[C@@H](O)C[C@@H](O)CC(=O)O[C@H]1C)C[C@H](O)[C@H]2C(=O)O` [MMV689000]: the “Pathogen Box screen signal/noise ratio” value came out at 1.1.

With `CO/C=C(/C(=O)OC)c1ccccc1Oc1cc(Oc2ccccc2C#N)ncn1` [MMV021057], the “Pathogen Box screen signal/noise ratio” value is given as 0.6.

As for `CCC(Sc1nc2ccccc2o1)C(=O)Nc1nccs1` (stereo not drawn) [MMV676383], the “Pathogen Box screen signal/noise ratio” value amounted to 0.8.

With `c1ccc(Oc2ccc(-c3cc(CN4CCOCC4)[nH]n3)cc2)cc1` [MMV676161], the “Pathogen Box screen signal/noise ratio” value stood at 1.1.

For `O=C(C(Cc1c[nH]c2ccccc12)NS(=O)(=O)c1ccc(Cl)cc1)N1CCCCC1` (stereo not drawn) [MMV085210], the “Pathogen Box screen signal/noise ratio” value is 2.9.

Consider `Cc1nn(Cc2ccccc2)c(Cl)c1C(=O)NC1CCCCCC1` [MMV063404], for which the “Pathogen Box screen signal/noise ratio” value is reported as 2.2.

`COc1ccc(-c2nnc3ccc(-c4cccc(C(C)C)c4)cn23)cc1OC` [MMV688313]: the “Pathogen Box screen signal/noise ratio” value is listed as 1.1.

With `O=C(CCC1CCCCC1)Nc1cccc(-c2nnc(-c3ccco3)o2)c1` [MMV676589], the “Pathogen Box screen signal/noise ratio” value is reported as 0.6.

Take `COc1ccc2nc(C)cc(OCC(=O)Nc3ccccc3OC)c2c1` [MMV687188]: the “Pathogen Box screen signal/noise ratio” value was 1.7.

Consider `c1ccc(-c2nc(NC3CCCCC3)cc(C3CC3)n2)nc1` [MMV021013], for which the “Pathogen Box screen signal/noise ratio” value amounted to 0.0694.

Turning to `FC(F)(F)c1cccc(-c2nc3c(NCc4ccncc4)nccc3[nH]2)c1` [MMV032967], the “Pathogen Box screen signal/noise ratio” value was 3.3.

For `CCCNC(=O)N1CCC2(CC1)CC(=O)c1cc(C)ccc1O2` [MMV085230], the “Pathogen Box screen signal/noise ratio” value is 1.0.

Regarding `CC(C)n1ncc2c(C(=O)NCC(c3cccs3)N3CCOCC3)cc(-c3ccccc3)nc21` (stereo not drawn) [MMV676406], the “Pathogen Box screen signal/noise ratio” value stood at 2.6.

Turning to `Cc1nn(C)c(C)c1NS(=O)(=O)c1c(Cl)cc(-c2ccnc(N3CCNCC3)c2)cc1Cl` [MMV688180], the “Pathogen Box screen signal/noise ratio” value turned out to be 0.15.

For `Nc1c2c(nc3sc4c(c13)CCCC4)CCCC2` [MMV676588], the “Pathogen Box screen signal/noise ratio” value turned out to be 0.449.

In the case of `COc1ccc(-c2cnc3ccc(N4CCCC4)nn23)cc1OC` [MMV023985], the “Pathogen Box screen signal/noise ratio” value stood at 2.0.

Take `COc1ccc2nc(C)cc(OCC(=O)NCc3ccccc3)c2c1` [MMV687189]: the “Pathogen Box screen signal/noise ratio” value came to 0.0536.

`c1ccc(-c2[nH]c3ccccc3c2C(c2ccccn2)N2CCCC2)cc1` (stereo not drawn) [MMV688762]: the “Pathogen Box screen signal/noise ratio” value is reported as 0.9.

In the case of `Cc1nc(-c2cccc(NCc3ccccc3)c2)[nH]c1C` [MMV023227], the “Pathogen Box screen signal/noise ratio” value is listed as 1.4.

With `CC(C)(C)OC(=O)N1CCN(c2nccc(-c3ccc(-c4ccc(Cl)cc4)s3)n2)CC1` [MMV688416], the “Pathogen Box screen signal/noise ratio” value was 0.333.

In the case of `O=S(=O)(c1ccc(Cl)cc1)N1CCN(C(=S)NCc2ccco2)CC1` [MMV000858], the “Pathogen Box screen signal/noise ratio” value came to 2.2.

Regarding `CC[C@@H]([C@H](C)O)n1ncn(-c2ccc(N3CCN(c4ccc(OC[C@@H]5CO[C@@](Cn6cncn6)(c6ccc(F)cc6F)C5)cc4)CC3)cc2)c1=O` [MMV688774], the “Pathogen Box screen signal/noise ratio” value was 3.4.

Turning to `Cn1ccnc1CNCCS(=O)(=O)c1cccc(Nc2ccc(-c3cccc(F)c3)cn2)c1` [MMV688466], the “Pathogen Box screen signal/noise ratio” value is recorded as 0.0.

For the compound `COc1ccccc1CNC(=O)c1cc(C2CC2)nc2c1cnn2C(C)C` [MMV020517], the “Pathogen Box screen signal/noise ratio” value stood at 2.3.

With `CO/N=C(\C(=O)OC)c1ccccc1CO/N=C(\C)c1cccc(C(F)(F)F)c1` [MMV688754], the “Pathogen Box screen signal/noise ratio” value came to 1.2.

Turning to `O=C(c1ccc(F)cc1)N(CCNc1ccccc1)c1ccccc1` [MMV676204], the “Pathogen Box screen signal/noise ratio” value is listed as 0.644.

On to `CC(C)(C)CN1C(=O)C(c2ccccc2)(c2ccccc2)N=C1N` [MMV026550], for which the “Pathogen Box screen signal/noise ratio” value was 0.455.

With `COC(=O)C1=C(C)NC(C)=C(C(=O)OC(C)C)C1c1cccc2nonc12` (stereo not drawn) [MMV001493], the “Pathogen Box screen signal/noise ratio” value was found to be 1.1.

Take `COc1ccc(-c2cnc3cnc(-c4cccc(OC(C)C)c4)cn23)cc1` [MMV688270]: the “Pathogen Box screen signal/noise ratio” value was 0.0179.

Turning to `Cc1ccc(S(=O)(=O)Nc2ccc(CN3CCN(C(=O)c4cccc(C#N)c4)CC3)cc2)cc1` [MMV689028], the “Pathogen Box screen signal/noise ratio” value is reported as -0.5.

Regarding `CCS(=O)(=O)N(Cc1ccco1)Cc1cc2ccc(C)cc2nc1O` [MMV676398], the “Pathogen Box screen signal/noise ratio” value is reported as -0.167.

For `COc1ccc(N(CCc2cccc(C)n2)C(C)=O)cc1` [MMV675995], the “Pathogen Box screen signal/noise ratio” value is 0.318.

On to `O=C(NCCc1ccn(-c2ccccc2)n1)C1CCCCC1` [MMV688795], for which the “Pathogen Box screen signal/noise ratio” value worked out at 0.0455.

As to `O=C(NC1=NCCS1)c1sc2cc(F)ccc2c1Cl` [MMV676584], the “Pathogen Box screen signal/noise ratio” value is recorded as 1.1.

For `Clc1ccc(Cl)c(CO[C@H]2CCCC[C@@H]2n2ccnc2)c1` [MMV676048], the “Pathogen Box screen signal/noise ratio” value worked out at 1.1.

Take `CC(=O)NCC1CN(c2ccc(-c3ccc(CO)cc3)c(F)c2)C(=O)O1` (stereo not drawn) [MMV688508]: the “Pathogen Box screen signal/noise ratio” value worked out at 0.8.

As to `COc1cccc(NC(=O)c2c(NC(=O)c3cccnc3)sc3c2CCC3)c1` [MMV228911], the “Pathogen Box screen signal/noise ratio” value is on record as 2.2.

In the case of `CN1CCN(c2nccc3[nH]c(-c4cccc(F)c4)cc23)CC1` [MMV393144], the “Pathogen Box screen signal/noise ratio” value came to 1.4.

With `Cc1cc(C)c2cc(C(=O)NC3CCCCCCC3)[nH]c2c1` [MMV687146], the “Pathogen Box screen signal/noise ratio” value was 1.1.

With `CC(C)C(C(=O)Nc1ccc(S(=O)(=O)N(C)C)cc1)c1ccc(Cl)cc1` (stereo not drawn) [MMV020391], the “Pathogen Box screen signal/noise ratio” value is listed as 0.25.

For the origin of these results see publication PMC9579956 (RSC Medicinal Chemistry, 2022).
